Results published in patent US20230278972A1, “SUBSTITUTED HALOALKYL SULFONANILIDE HERBICIDES” (FMC Corporation, priority 2020, published 2023).
Read-outs that look alike come from different tables or passages of the source.

How the values were obtained:
[1] = system: kochia (Bassia scoparia); experiment: Test A preemergence, kochia; assay type: in vivo; details: Bassia scoparia, pre-emergence, 240 h, Preemergence; for pest or weed control at 125 g/ha: 125 g ai/ha; for pest or weed control at 500 g/ha: 500 g ai/ha
Outline: (§1)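 Preemergence: seeded pots of loam plus sand received a directed soil spray. Postemergence: seedlings at one to two leaves, 2 to 10 cm high, were oversprayed. Each compound was formulated in a non-phytotoxic solvent mix that included a surfactant.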

[2] = system: ragweed (common ragweed, Ambrosia artemisiifolia); experiment: Test A preemergence, ragweed; assay type: in vivo; details: Ambrosia artemisiifolia, pre-emergence, 240 h, Preemergence; for pest or weed control at 125 g/ha: 125 g ai/ha; for pest or weed control at 500 g/ha: 500 g ai/ha
Outline: as §1

[3] = system: ragweed (common ragweed, Ambrosia artemisiifolia); experiment: Test A postemergence, ragweed; assay type: in vivo; details: Ambrosia artemisiifolia, post-emergence, 240 h, Postemergence, 0 to 100 scale (0 no effect, 100 complete control); for pest or weed control at 125 g/ha: 125 g ai/ha; for pest or weed control at 500 g/ha: 500 g ai/ha
Outline: as §1

[4] = system: corn (Zea mays); experiment: Test A postemergence, corn; assay type: in vivo; details: Zea mays, post-emergence, 240 h, Postemergence, 0 to 100 scale (0 no effect, 100 complete control); for Corn plant response rating (crop injury, 0 = no effect, 100 = complete kill) at 125 g/ha: 125 g ai/ha; for Corn plant response rating (crop injury, 0 = no effect, 100 = complete kill) at 500 g/ha / plant injury at 500 g/ha: 500 g ai/ha; for plant injury at 500 g/ha: visual injury vs untreated controls after approx. 10 days, read-out: Corn plant response rating
Outline: as §1

[5] = system: rice (Oryza sativa); experiment: Test B flooded paddy test, rice; details: 336 h, read-out: Plant response rating, Rice
[6] = system: ducksalad (Heteranthera limosa); experiment: Test B flooded paddy test, ducksalad; details: 336 h, read-out: Plant response rating, Ducksalad
[7] = visual injury on 0 to 100 scale (0 no effect, 100 complete control), approximately 10 days, read-out: Kochia plant response rating
[8] = 0 to 100 scale (0 no effect, 100 complete control), read-out: Plant response rating, Kochia
[9] = visual injury on 0 to 100 scale (0 no effect, 100 complete control), approximately 10 days, read-out: Ragweed plant response rating
[10] = 0 to 100 scale (0 no effect, 100 complete control), read-out: Plant response rating, Ragweed
[11] = visual injury approx. 10 days, read-out: Plant response rating, Ragweed
[12] = visual injury, approx. 10 days, read-out: Plant response rating, Ragweed
[13] = visual injury vs untreated controls after approx. 10 days, read-out: Ragweed plant response rating
[14] = visual injury, 0 to 100 scale (0 no effect, 100 complete control), approx. 10 days, read-out: Plant response rating, Kochia
[15] = visual injury, 0 to 100 scale (0 no effect, 100 complete control), approx. 10 days, read-out: Plant response rating, Ragweed
[16] = read-out: Plant response rating, Ragweed

Row | SMILES | pest or weed control at 125 g/ha [1, 7] | pest or weed control at 500 g/ha [1, 8] | pest or weed control at 125 g/ha [2, 9] | pest or weed control at 500 g/ha [2, 10] | pest or weed control at 125 g/ha [3, 11] | pest or weed control at 500 g/ha [3, 12] | Corn plant response rating (crop injury, 0 = no effect, 100 = complete kill) at 125 g/ha ([4]; visual injury approx. 10 days) | Corn plant response rating (crop injury, 0 = no effect, 100 = complete kill) at 500 g/ha ([4]; visual injury, approx. 10 days) | plant injury at 250 g/ha [5] | pest or weed control at 250 g/ha [6] | pest or weed control at 500 g/ha [3, 13] | plant injury at 500 g/ha [4] | pest or weed control at 125 g/ha [1, 14] | pest or weed control at 500 g/ha [1, 7] | pest or weed control at 125 g/ha [2, 15] | pest or weed control at 500 g/ha [2, 9] | pest or weed control at 125 g/ha [3, 16] | pest or weed control at 500 g/ha [3, 11] | Corn plant response rating (crop injury, 0 = no effect, 100 = complete kill) at 125 g/ha [4] | Corn plant response rating (crop injury, 0 = no effect, 100 = complete kill) at 500 g/ha ([4]; visual injury approx. 10 days)
1 | CCc1cc(-c2cc(NS(=O)(=O)C(F)(F)F)c(C)cc2C)c(=O)n(C)n1 [Compound 34, N-[5-(6-Ethyl-2,3-dihydro-2-methyl-3-oxo-4-pyridazinyl)-2,4-dimethylphenyl]-1,1,1-trifluoromethanesulfonamide] | 30% | 70% | 0% | 20% | 0% | 0% | 0% | 0% | 0% | 0% |  |  |  |  |  |  |  |  |  | 
2 | Cc1cc(C)c(C2=NOC3CCOCC23)cc1NS(=O)(=O)C(F)(F)F (stereo not drawn) [Compound 120, N-[2,4-Dimethyl-5-(3a,6,7,7a-tetrahydro-4H-pyrano[3,4-d]isoxazol-3-yl)phenyl]-1,1,1-trifluoromethanesulfonamide] | 90% | 100% | 90% | 100% | 80% |  | 0% |  | 0% | 55% | 90% | 70% |  |  |  |  |  |  |  | 
3 | Cc1cc(C)c(C(=O)N2CCC(F)(F)CC2)cc1NS(=O)(=O)C(F)(F)F [Compound 241, N-[5-[(4,4-Difluoro-1-piperidinyl)carbonyl]-2,4-dimethylphenyl]-1,1,1-trifluoromethanesulfonamide] |  |  |  |  |  |  |  |  | 25% | 85% |  |  | 70% | 100% | 70% | 90% | 40% | 80% | 10% | 20%
4 | Cc1cc(Cl)c(NS(=O)(=O)C(F)(F)F)cc1C(=O)N1CCCCC1 [Compound 18, N-[2-Chloro-4-methyl-5-(1-piperidinylcarbonyl)phenyl]-1,1,1-trifluoromethanesulfonamide] | 10% | 60% | 0% | 30% | 0% | 80% | 0% | 0% | 0% | 0% |  |  |  |  |  |  |  |  |  | 
5 | Cc1cc(Cl)c(NS(=O)(=O)C(F)(F)F)cc1C(=O)N1CCC(F)(F)CC1 [Compound 229, N-[2-Chloro-5-[(4,4-difluoro-1-piperidinyl)carbonyl]-4-methylphenyl]-1,1,1-trifluoromethanesulfonamide] |  |  |  |  |  |  |  |  | 10% | 75% | 90% | 70% | 80% | 100% | 90% | 100% | 90% |  | 20% | 
6 | Cc1cc(C)c(N(COC(=O)C(C)(C)C)S(=O)(=O)C(F)(F)F)cc1C1=NO[C@@H]2CCC[C@H]12 [Compound 100, [[2,4-Dimethyl-5-[(3aR,6aR)-3a,5,6,6a-tetrahydro-4H-cyclopent[d]isoxazol-3-yl]phenyl][(trifluoromethyl)sulfonyl]amino]methyl 2,2-dimethylpropanoate] | 60% | 80% | 20% | 80% | 40% |  | 10% |  | 20% | 70% | 80% | 30% |  |  |  |  |  |  |  | 
7 | Cc1cc(Cl)c(NS(=O)(=O)C(F)(F)F)cc1C(=O)N1CCOCC1 [Compound 16, N-[2-Chloro-4-methyl-5-(4-morpholinylcarbonyl)phenyl]-1,1,1-trifluoromethanesulfonamide] | 90% | 90% | 80% | 100% | 80% | 90% | 0% | 50% | 0% | 40% |  |  |  |  |  |  |  |  |  | 
8 | Cc1cc(C)c(C2=NOC3(CCCC3)C2)cc1NS(=O)(=O)C(F)(F)F [Compound 207, N-[2,4-Dimethyl-5-(1-oxa-2-azaspiro[4.4]non-2-en-3-yl)phenyl]-1,1,1-trifluoromethanesulfonamide] |  | 90% |  | 70% |  |  |  |  | 0% | 95% | 70% | 70% | 90% |  | 20% |  | 20% |  | 20% | 
9 | Cc1cc(C)c(C2=NO[C@@H]3CCC[C@H]23)cc1NS(=O)(=O)C(F)(F)F [Compound 103, N-[2,4-Dimethyl-5-[(3aR,6aR)-3a,5,6,6a-tetrahydro-4H-cyclopent[d]isoxazol-3-yl]phenyl]-1,1,1-trifluoromethanesulfonamide] | 80% | 90% | 70% | 90% | 60% |  | 20% |  | 25% | 80% | 70% | 70% |  |  |  |  |  |  |  | 
10 | Cc1cc(C)c(C2=NOC3COCCC23)cc1NS(=O)(=O)C(F)(F)F (stereo not drawn) [Compound 121, N-[2,4-Dimethyl-5-(3a,4,7,7a-tetrahydro-5H-pyrano[4,3-d]isoxazol-3-yl)phenyl]-1,1,1-trifluoromethanesulfonamide] | 90% | 90% | 80% | 100% | 90% |  | 50% |  | 20% | 75% | 90% | 80% |  |  |  |  |  |  |  | 
11 | Cc1cc(C)c(C2=NOC3(CCCCC3)C2)cc1NS(=O)(=O)C(F)(F)F [Compound 197, N-[2,4-Dimethyl-5-(1-oxa-2-azaspiro[4.5]dec-2-en-3-yl)phenyl]-1,1,1-trifluoromethanesulfonamide] |  | 90% |  | 90% |  |  |  |  | 0% | 95% | 80% | 80% | 90% |  | 80% |  | 80% |  | 20% | 
12 | Cc1c(NS(=O)(=O)C(F)(F)F)cc(C(=O)N(C)C)c(C)c1F [Compound 128, 3-Fluoro-N,N,2,4-tetramethyl-5-[[(trifluoromethyl)sulfonyl]amino]benzamide] | 80% | 80% | 90% | 90% | 80% |  | 10% |  | 0% | 50% | 90% | 60% |  |  |  |  |  |  |  | 
